According to PMC6931042 (Bioorganic chemistry, 2018):
Where two headings read alike, the source gives them in different places. One block for each molecule: values may come before it.

Experiments:
A549 cells [1] = assay: Apoptosis, annexin V-FITC/PI flow cytometry; type: cell-based, human; conditions: for percentage of apoptotic cells: 48 h; for proportion of apoptotic cells compared to control: 1, 3, or 6 μM, 24 h, data not shown
MDA-MB231/ATCC = assay: NCI in vitro five dose anticancer assay; type: cell-based, human
A498 = assay: NCI in vitro five dose anticancer assay; type: cell-based, human
NCI-H23 = assay: NCI in vitro five dose anticancer assay; type: cell-based, human
SK-MEL-28 = assay: NCI in vitro five dose anticancer assay; type: cell-based, human
EKVX = assay: NCI in vitro five dose anticancer assay; type: cell-based, human
HOP-62 = assay: NCI in vitro five dose anticancer assay; type: cell-based, human
K-562 cells = assay: Apoptosis, annexin V-FITC/PI flow cytometry; type: cell-based, human; conditions: 24 h
PC-3 = assay: NCI in vitro five dose anticancer assay; type: cell-based, human
UACC-62 = assay: NCI in vitro five dose anticancer assay; type: cell-based, human
ACHN = assay: NCI in vitro five dose anticancer assay; type: cell-based, human
SN12C = assay: NCI in vitro five dose anticancer assay; type: cell-based, human
SK-OV-3 = assay: NCI in vitro five dose anticancer assay; type: cell-based, human
[2] = test system: p53, p21, cyclin B1 and Cdc2 in A549 cells; assay: Western blotting, p53 and cell cycle regulators; type: cell-based, human; conditions: 1, 3 and 6 μM, western blot; for expression of Cdc2 / expression of cyclin B1 / expression of p21: dose dependent
A549 cells [3] = assay: Cell cycle analysis by flow cytometry; type: cell-based, human; conditions: 24 h
class I PI3K enzymes = assay: PI3K biochemical assay, all isoforms stated jointly; conditions: read-out: IC50s against the different PI3K isoforms; range over PI3K-α, β, γ, δ
HCT-15 = assay: NCI in vitro five dose anticancer assay; type: cell-based, human
RPMI-8226 = assay: NCI in vitro five dose anticancer assay; type: cell-based, human
A549 and K-562 cells = assay: Cytotoxicity IC50 stated jointly for the 2 cell lines; type: cell-based, human; conditions: read-out: IC50 against the 2 cell lines tested
U251 = assay: NCI in vitro five dose anticancer assay; type: cell-based, human
[4] = test system: p-PI3K, p-Akt, p-mTOR and p-GSK-3β in K-562 cells; assay: Western blotting, PI3K/Akt/mTOR pathway; type: cell-based, human; conditions: 1, 3, or 6 μM, western blot, dose-dependent
OVCAR-5 = assay: NCI in vitro five dose anticancer assay; type: cell-based, human
IGROV1 = assay: NCI in vitro five dose anticancer assay; type: cell-based, human
A549/ATCC = assay: NCI in vitro five dose anticancer assay; type: cell-based, human
RXF 393 = assay: NCI in vitro five dose anticancer assay; type: cell-based, human
K-562 = assay: NCI in vitro five dose anticancer assay; type: cell-based, human
OVCAR-4 = assay: NCI in vitro five dose anticancer assay; type: cell-based, human
M14 = assay: NCI in vitro five dose anticancer assay; type: cell-based, human
NCI-H522 = assay: NCI in vitro five dose anticancer assay; type: cell-based, human
SF-295 = assay: NCI in vitro five dose anticancer assay; type: cell-based, human
HS 578T = assay: NCI in vitro five dose anticancer assay; type: cell-based, human
MOLT-4 = assay: NCI in vitro five dose anticancer assay; type: cell-based, human
NCI-H322M = assay: NCI in vitro five dose anticancer assay; type: cell-based, human
SNB-19 = assay: NCI in vitro five dose anticancer assay; type: cell-based, human
DU-145 = assay: NCI in vitro five dose anticancer assay; type: cell-based, human
[5] = Non-small cell lung cancer, five dose assay
[6] = Prostate cancer, five dose assay
[7] = Ovarian cancer, five dose assay

IC50 (class I PI3K enzymes): 0.052 to 0.473 µM
SMILES: COc1ccc(-c2cc(C(=O)NN=C(/C=C\c3ccc(Cl)cc3)c3ccc(N)cc3)c3ccccc3n2)cc1 [Compound 9i, N’-((Z)-1-(4-Aminophenyl)-3-(4-chlorophenyl)allylidene)-2-(4-methoxphenyl)quinoline-4-carbohydrazide]
percentage of apoptotic cells (A549 cells [1]; 1 μM): 13.21%
percentage of apoptotic cells (A549 cells [1]; 3 μM): 22.73%
percentage of apoptotic cells (A549 cells [1]; 6 μM): 35.9%
proportion of apoptotic cells compared to control (A549 cells [1]): did not result in changes
GI50 (MDA-MB231/ATCC; Breast cancer, MDA-MB231/ATCC, five dose assay): 3.28 µM
GI50 (A498; Renal cancer, five dose assay): 0.375 µM
GI50 (NCI-H23; [5]): 3.14 µM
GI50 (SK-MEL-28; Melanoma, five dose assay): 3.78 µM
GI50 (EKVX; [5]): 3.78 µM
GI50 (HOP-62; [5]): 3.21 µM
percentage of apoptotic cells (K-562 cells; 1 μM): 25.79%
percentage of apoptotic cells (K-562 cells; 3 μM): 46.2%
percentage of apoptotic cells (K-562 cells; 6 μM): 46.6%
GI50 (PC-3; [6]): 2.03 µM
GI50 (UACC-62; Melanoma, five dose assay): 0.556 µM
GI50 (ACHN; Renal cancer, five dose assay): 1.47 µM
GI50 (SN12C; Renal cancer, five dose assay): 4.27 µM
GI50 (SK-OV-3; [7]): 3.32 µM
expression of wild type p53 [2]: upregulated
expression of Cdc2 [2]: attenuated
expression of cyclin B1 [2]: attenuated
expression of p21 [2]: significantly induced
percentage of cells in the G2/M phase (A549 cells [3]; 1 μM): 11%
percentage of cells in the G2/M phase (A549 cells [3]; 3 μM): 61.2%
percentage of cells in the G2/M phase (A549 cells [3]; 6 μM): 76.2%
GI50 (HCT-15; Colon cancer, five dose assay): 1.03 µM
GI50 (RPMI-8226; Leukemia, five dose assay): 3.86 µM
IC50 (A549 and K-562 cells; range over A549 and K-562): 1.91 to 5.29 µM
GI50 (U251; CNS cancer, U251, five dose assay): 2.18 µM
levels of phosphorylated Akt (at Ser473) [4]: decreases
levels of phosphorylated GSK-3β [4]: decreases
levels of phosphorylated PI3K (at Tyr458) [4]: decreases
levels of phosphorylated mTOR (at Ser2448) [4]: decreases
GI50 (OVCAR-5; [7]): 5.51 µM
GI50 (IGROV1; Ovarian cancer, IGROV1, five dose assay): 4.98 µM
GI50 (A549/ATCC; Non-small cell lung cancer, A549/ATCC, five dose assay): 2.33 µM
GI50 (RXF 393; Renal cancer, five dose assay): 0.698 µM
GI50 (K-562; Leukemia, K-562, five dose assay): 1.05 µM
GI50 (OVCAR-4; [7]): 1.82 µM
GI50 (M14; Melanoma, five dose assay): 1.16 µM
GI50 (NCI-H522; [5]): 0.307 µM
GI50 (SF-295; CNS cancer, five dose assay): 0.54 µM
GI50 (HS 578T; Breast cancer, HS 578T, five dose assay): 1.05 µM
GI50 (MOLT-4; Leukemia, five dose assay): 3.3 µM
GI50 (NCI-H322M; [5]): 6 µM
GI50 (SNB-19; CNS cancer, five dose assay): 5.54 µM
GI50 (DU-145; [6]): 3.16 µM

IC50 (class I PI3K enzymes): 0.052 to 0.473 µM
SMILES: Cc1ccc(-c2cc(C(=O)NN=C(/C=C\c3ccc(Cl)cc3)c3ccc(N)cc3)c3ccccc3n2)cc1 [Compound 9j, N’-((Z)-1-(4-Aminophenyl)-3-(4-chlorophenyl)allylidene)-2-(4-methylphenyl)quinoline-4-carbohydrazide]
percentage of apoptotic cells (A549 cells [1]; 1 μM): 14.68%
percentage of apoptotic cells (A549 cells [1]; 3 μM): 14.07%
percentage of apoptotic cells (A549 cells [1]; 6 μM): 28.1%
proportion of apoptotic cells compared to control (A549 cells [1]): did not result in changes
GI50 (MDA-MB231/ATCC; Homo sapiens, MDA-MB-231): 3.94 µM
GI50 (A498; Homo sapiens): 1.64 µM
GI50 (NCI-H23; Homo sapiens): 5.02 µM
GI50 (SK-MEL-28; Homo sapiens): 6.23 µM
GI50 (EKVX; Homo sapiens): 3.99 µM
GI50 (HOP-62; Homo sapiens): 4.62 µM
percentage of apoptotic cells (K-562 cells; 1 μM): 16.65%
percentage of apoptotic cells (K-562 cells; 3 μM): 39.4%
percentage of apoptotic cells (K-562 cells; 6 μM): 47.1%
GI50 (PC-3; Homo sapiens): 3.4 µM
GI50 (UACC-62; Homo sapiens): 2.06 µM
GI50 (ACHN; Homo sapiens): 4.19 µM
GI50 (SN12C; Homo sapiens): 6.84 µM
GI50 (SK-OV-3; Homo sapiens): 4.94 µM
expression of wild type p53 [2]: upregulated
expression of Cdc2 [2]: attenuated
expression of cyclin B1 [2]: attenuated
expression of p21 [2]: significantly induced
percentage of cells in the G2/M phase (A549 cells [3]; 1 μM): 6.22%
percentage of cells in the G2/M phase (A549 cells [3]; 3 μM): 15.8%
percentage of cells in the G2/M phase (A549 cells [3]; 6 μM): 59.6%
GI50 (HCT-15; Homo sapiens): 3.33 µM
GI50 (RPMI-8226; Homo sapiens): 4.1 µM
IC50 (A549 and K-562 cells; Homo sapiens): 1.91 to 5.29 µM
GI50 (U251; Homo sapiens, U-251): 4.51 µM
levels of phosphorylated Akt (at Ser473) [4]: decreases
levels of phosphorylated GSK-3β [4]: decreases
levels of phosphorylated PI3K (at Tyr458) [4]: decreases
levels of phosphorylated mTOR (at Ser2448) [4]: decreases
GI50 (OVCAR-5; Homo sapiens): 8.43 µM
GI50 (IGROV1; Homo sapiens, IGROV-1): 6.48 µM
GI50 (A549/ATCC; Homo sapiens, A549): 4.79 µM
GI50 (RXF 393; Homo sapiens): 1.63 µM
GI50 (K-562; Homo sapiens, K562): 3.09 µM
GI50 (OVCAR-4; Homo sapiens): 4.71 µM
GI50 (M14; Homo sapiens): 2.54 µM
GI50 (NCI-H522; Homo sapiens): 0.622 µM
GI50 (SF-295; Homo sapiens): 3.13 µM
GI50 (HS 578T; Homo sapiens, Hs-578T): 4.68 µM
GI50 (MOLT-4; Homo sapiens): 3.23 µM
GI50 (NCI-H322M; Homo sapiens): 4.73 µM
GI50 (SNB-19; Homo sapiens): 6.51 µM
GI50 (DU-145; Homo sapiens): 3.68 µM
